The source of these data is US20160287621A1, “BIOLOGICAL PRODUCTION OF NAD PRECURSORS AND ANALOGS” (PRESIDENT AND FELLOWS OF HARVARD COLLEGE, priority 2013, published 2016).

The subject of experiment [1] is Human dermal fibroblasts (HDFa). Briefly: NAD+ levels in human dermal fibroblasts treated for 24 hrs. The format is cell-based. How it is done:
A and B) Human dermal fibroblasts (HDFa) were treated with various concentration of NMN extract or pure NMN from Sigma (St. Louis, Mo.) respectively for 24 hrs and NAD+ levels were determined.
A) and B) Human dermal fibroblasts (HDFa) were treated with 50 μM of pure NMN and different concentration of Folate or S-adenosyl-L-methionine (SAM) respectively for 24 hrs and NAD^+ levels were determined.
The effect of pure NMN and partially purified NMN extract on the NAD^+ level in cells was investigated. Briefly, human dermal fibroblasts (HDFa) were treated with varying concentrations of NMN extract or pure NMN for 24 hours and NAD^+ levels were determined. Pure NMN was obtained from Sigma. Partially purified NMN extract was obtained using the methods described above.

For experiment [2] the following is noted: cigarette smokers, small clinical trial; cited from earlier work.

With `C[S+](CC[C@H](N)C(=O)O)C[C@H]1O[C@@H](n2cnc3c(N)ncnc32)[C@H](O)[C@@H]1O` (stereo partly drawn) [SAM, S-adenosyl-L-methionine], in experiment [1] (50 μM pure NMN plus different concentrations of Folate or SAM, 24 hrs), the “effect for raising NAD+ levels in combination with NMN” value is recorded as “synergistic effect”.
Consider `NC(=O)c1ccc[n+]([C@@H]2O[C@H](COP(=O)([O-])O)[C@@H](O)[C@H]2O)c1` [Pure NMN, nicotinamide mononucleotide], for which, in experiment [1] (varying concentrations, 24 hours), the “NAD+ levels in cells” value is “increased levels of NAD^+”.
Turning to `Cc1nc(-c2cccnc2)sc1C(=O)Nc1ccccc1-c1cn2c(CN3CCOCC3)csc2n1` [SRT2104], the “serum lipid profile (total cholesterol, LDL and triglycerides)” value in experiment [2] is “improved the serum lipid profile”.
